Source: US8822692B2, “Diterpenoid derivatives endowed of biological properties” (SIGMA-TAU Industrie Farmaceutiche Riunite S.p.A., priority 2010, dated 2014)
Marks after values point to notes of the source that are not given here.

Assays:
Assay type in all cases: in vivo, rat
[1] = test system: Ouabain-Hypertensive Rats (OHR); test: Anti-hypertensive effect in ouabain-hypertensive rats (OHR), six week oral treatment; conditions: six weeks
Method: (§1) Anti-hypertensive property of various derivatives were looked at in vivo in three animal models of hypertension (i.e., mutant α-adducin congenic rats, ouabain-hypertensive rats and Milan hypertensive rats).
Hypertension was provoked by subcutaneous ouabain infusion (15 μg/kg/day) in normotensive rats as already described (Ferrari P., et al., J. Pharmacol. Exp. Ther., 1998, 285, 83).

[2] = test system: Milan Hypertensive Rats (MHS); test: Anti-hypertensive effect in Milan hypertensive rats (MHS), six week oral treatment; conditions: for SBP / HR: oral gavage 10 μg/kg/day, six weeks; for SBP: vehicle 169 (experiment A), 164 (experiment B); for HR: vehicle 348 (experiment A), 363 (experiment B); for effect on SBP in MHS rats (in words): at the dose tested
Excerpt: as §1
Milan hypertensive rats is a rat model of genetic hypertension sustained by α-adducin mutation and increased circulating levels of endogenous ouabain (Ferrari P., et al., Hypertension: Pathophysiology, Diagnosis and Management, (Volume 1). Laragh J H and Brenner B M (Eds.), Raven Press Publishers, New York, USA, 1261-1279, (1995).
The compounds were administered by oral gavage (10 μg/kg/day) for six weeks.

[3] = test system: rats bearing an α-adducin mutation (NA strain); test: Anti-hypertensive effect in mutant α-adducin congenic rats (NA), six week oral treatment; conditions: six weeks; for SBP: vehicle 164.4; for HR: vehicle 412
Method: Anti-hypertensive property of various derivatives were looked at in vivo in three animal models of hypertension (i.e., mutant α-adducin congenic rats, ouabain-hypertensive rats and Milan hypertensive rats). The compound of example 4 was administered by oral gavage at various doses for six weeks to rats bearing an α-adducin mutation (NA strain). Such mutation leading to hypertension and organ complication (Bianchi G., et al., Proc. Natl. Acad. Sci., 1994, 91, 3999) was obtained by introgressing a segment of chromosome 14 containing the locus of α-adducin from Milan Hypertensive rats (MHS), having the mutant variant, into Milan Normotensive rats (MNS), carrying the wild type α-adducin variant (Tripodi G., et al., Biochem. Biophys. Res. Commun., 2004, 324, 562).

OHR rats = test: Urinary protein excretion and renal function in OHR rats
Method: The effect of the compound of example 4 on urinary protein excretion was investigated. Increased levels of circulating endogenous ouabain not only associate with hypertension but also may affect renal function and increase the risk of renal failure and proteinuria (Stella P., et al., J. Int. Med., 2008, 263, 274) which represent major organ complications associated to hypertension.
OHR rats were orally treated with the compound of example 4 at 0.1 μg/kg/day for 6 weeks. At the end of the treatment, rats were allocated in single metabolic cages for 24 h urine collection.
Proteinuria and urinary creatinine were measured by commercial kits (Sentinel). Rats were sacrificed and blood was collected for plasma creatinine measurement.

[4] = oral gavage 0.1 μg/kg/day once a day, experiment A, vehicle 173
[5] = oral gavage 0.1 μg/kg/day once a day, experiment A, vehicle 387
[6] = oral gavage 1 μg/kg/day once a day, experiment A, vehicle 173
[7] = oral gavage 1 μg/kg/day once a day, experiment A, vehicle 387

Compound	SBP [1, 4]	HR [1, 5] [beats/min]	SBP [2]	HR [2] [beats/min]	SBP [1, 6]	HR [1, 7] [beats/min]	effect on SBP in MHS rats (in words) [2]	also measured
CC(C)c1ccc2c(c1)CCC1C(C)(CCCCCN)CCCC21C.O=C(O)/C=C/C(=O)O (stereo not shown) [Example 25, 15-(4-Aminobutyl)-13-isopropylpodocarpa-8,11,13-triene fumarate]	164 mmHg	395	–	–	–	–	–	–
CC(C)c1ccc2c(c1)CCC1C(C)(/C=N/O[C@H]3CCNC3)CCCC21C.O=C(O)/C=C/C(=O)O (stereo partly drawn) [Example 5, (E)-15-((S)-3-Pyrrolidinyloxyimino)-13-isopropylpodocarpa-8,11,13-triene fumarate]	154** mmHg	390	155* mmHg	367	–	–	–	–
CC(C)c1ccc2c(c1)CCC1C(C)(/C=C\CCCN)CCCC21C.O=C(O)/C=C/C(=O)O (stereo not shown) [Example 23, (Z)-15-(4-Aminobutyliden)-13-isopropylpodocarpa-8,11,13-triene fumarate]	–	–	–	–	159** mmHg	370	–	–
CC(C)c1ccc2c(c1)C(=O)C[C@H]1[C@](C)(/C=N/OCCN)CCC[C@]21C.O=C(O)/C=C/C(=O)O [Example 12, (E)-15-(2-Aminoethoxyimino)-13-isopropylpodocarpa-8,11,13-triene-7-one fumarate]	–	–	161* mmHg	347	–	–	significantly reduced SBP	SBP ([1]; oral gavage 10 μg/kg/day once a day, experiment B, vehicle 171): 156** mmHg; HR ([1]; oral gavage 10 μg/kg/day once a day, experiment B, vehicle 377): 380 beats/min
CC(C)c1ccc2c(c1)CCC1C(C)(COCCCN)CCCC21C.O=C(O)/C=C/C(=O)O (stereo not shown) [Example 27, 15-(3-Aminopropoxy)-13-isopropylpodocarpa-8,11,13-triene fumarate]	–	–	156* mmHg	367	156** mmHg	390	significantly reduced SBP	–
CC(C)c1ccc2c(c1)CCC1C(C)(/C=N/O[C@@H]3CCNC3)CCCC21C.O=C(O)/C=C/C(=O)O (stereo partly drawn) [Example 4, (E)-15-((R)-3-Pyrrolidinyloxyimino)-13-isopropylpodocarpa-8,11,13-triene fumarate]	157** mmHg	382	–	–	153** mmHg	380	not effective on SBP	SBP ([3]; oral gavage 1 μg/kg/day): 150.6* mmHg; HR ([3]; oral gavage 1 μg/kg/day): 415 beats/min; SBP ([3]; oral gavage 10 μg/kg/day): 150.6* mmHg; HR ([3]; oral gavage 10 μg/kg/day): 425 beats/min; SBP ([3]; oral gavage 100 μg/kg/day): 147.5** mmHg; HR ([3]; oral gavage 100 μg/kg/day): 421 beats/min; urinary protein excretion in OHR rats (in words) (OHR rats; 0.1 μg/kg/day): significantly reduced the urinary protein excretion; Urinary creatinine (OHR rats; oral 0.1 μg/kg/day, 6 weeks, 24 h urine, OHR vehicle 33.7, saline controls 36.1): 35.6 mg/24 h; Proteinuria (OHR rats; oral 0.1 μg/kg/day, 6 weeks, 24 h urine, OHR vehicle 51.6 ± 5, saline controls 35.6): 42** mg/24 hr; Plasma creatinine (OHR rats; oral 0.1 μg/kg/day, 6 weeks, OHR vehicle 3.51, saline controls 3.1): 3.59 mg/dL
CC(N)CCCCC1(C)CCCC2(C)c3ccc(C(C)C)cc3CCC12.O=C(O)/C=C/C(=O)O (stereo not shown) [Example 26, 15-(4-Aminopentyl)-13-isopropylpodocarpa-8,11,13-triene fumarate]	–	–	–	–	164 mmHg	374	–	–
CC(C)c1ccc2c(c1)CCC1C(C)(C=NOC3CCNCC3)CCCC21C.O=C(O)C=CC(=O)O (stereo not shown) [Example 6, (E)-15-(4-Piperidinyloxyimino)-13-isopropylpodocarpa-8,11,13-triene fumarate]	–	–	–	–	166 mmHg	392	–	–
